Read-outs that look alike come from different tables or passages of the source.
Molecular target: T1, MerTK (Homo sapiens, UniProt Q12866)
T1 construct: endogenous in cells; host or cells: Jurkat cells
T1 sequence (Q12866 21-999): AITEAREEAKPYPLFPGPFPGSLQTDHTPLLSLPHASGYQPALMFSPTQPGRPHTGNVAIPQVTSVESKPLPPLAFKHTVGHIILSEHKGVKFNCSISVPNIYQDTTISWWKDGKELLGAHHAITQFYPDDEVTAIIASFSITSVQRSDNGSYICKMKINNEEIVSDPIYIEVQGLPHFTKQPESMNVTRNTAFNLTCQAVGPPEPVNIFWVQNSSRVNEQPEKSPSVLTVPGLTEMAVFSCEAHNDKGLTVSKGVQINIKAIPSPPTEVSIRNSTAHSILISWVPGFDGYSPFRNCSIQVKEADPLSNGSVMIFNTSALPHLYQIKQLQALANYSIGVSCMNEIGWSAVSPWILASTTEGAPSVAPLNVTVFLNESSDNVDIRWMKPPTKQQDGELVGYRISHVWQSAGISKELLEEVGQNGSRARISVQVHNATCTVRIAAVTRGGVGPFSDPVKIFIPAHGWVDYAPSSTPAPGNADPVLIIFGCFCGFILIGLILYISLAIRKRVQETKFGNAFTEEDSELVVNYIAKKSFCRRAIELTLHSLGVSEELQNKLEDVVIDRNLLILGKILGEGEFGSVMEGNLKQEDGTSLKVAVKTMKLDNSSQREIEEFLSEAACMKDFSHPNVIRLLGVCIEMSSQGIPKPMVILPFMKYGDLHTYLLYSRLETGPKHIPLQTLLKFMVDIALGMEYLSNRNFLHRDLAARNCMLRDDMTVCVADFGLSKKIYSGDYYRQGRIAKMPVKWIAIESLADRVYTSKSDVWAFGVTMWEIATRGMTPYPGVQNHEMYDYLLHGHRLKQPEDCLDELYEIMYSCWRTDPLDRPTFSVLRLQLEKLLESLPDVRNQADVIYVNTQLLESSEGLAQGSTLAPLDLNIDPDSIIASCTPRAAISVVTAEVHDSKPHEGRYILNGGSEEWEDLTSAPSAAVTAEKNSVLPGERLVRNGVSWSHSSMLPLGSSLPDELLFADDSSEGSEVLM
Assay: MerTk degradation in Jurkat cells (Western blot)
Format: cell-based
Conditions: 0.001-1 μM, 4 hour-incubation at 37° C., read-out: Jurkat Max % MerTK Degradation
Procedure: Compounds were reconstituted in DMSO to make 10 mM stock solutions. […] Cells were seeded into 6-well plates with about 5×10^6 cells per well. 2 μL of diluted compounds were added to cells to the final concentration of 0.001-1 μM. After a 4 hour-incubation at 37° C., cells were collected into 2 mL Eppendorf tubes and centrifuged at 1,000 rpm for 5 min. The cell pellets were washed with DPBS (1×) once and resuspended in 60 μL RIPA lysis buffer with Halt Protease and Phophatase Inhibitor Cocktail. The cells were lysed on ice for 10 min, then centrifuged at 14,000 rpm for 10 min at 4° C. and the supernatants were collected for western blots.
The protein concentration of cell lysates was quantified with Pierce™ BCA Protein Assay Kit. […] BCA working reagents were prepared by mixing BCA reagent A with reagent B in 50: 1 ratio. 200 μL of the BCA working reagents were added to 25 μL of BCA standard or cell lysates in microplate, and mixed thoroughly on a plate shaker for 30 seconds. After incubation at 37° C. for 30 min, the absorbance of samples at 562 nm were measured with EnVision Plate Reader.
Protein lysates were prepared in NuPAGE™ LDS sample buffer and NuPAGE™ sample reducing agent, and incubated at 95° C. for 5 min. […] The proteins were transferred to low fluorescence PVDF membranes using the Trans-Blot Turbo Transfer System. Membranes were then blocked in Odyssey blocking buffer at RT for 1 h followed by primary incubation at 4° C. overnight. The primary antibodies were MerTK rabbit monoclonal antibody and actin mouse monoclonal antibody. Membranes were washed three times with TBST (1×), and then incubated with IR Dye 800 CW Goat anti-rabbit and IR Dye 700 CW Goat anti-mouse secondary antibodies in 1:10,000 dilution at RT for 1 h. The Western blot images were obtained using Odyssey Imaging System.

Cn1c(=O)n([C@H]2CCC(=O)NC2=O)c2ccc(CCCOCCOCCN3CCN(Cc4ccc(-c5nn([C@H]6CC[C@H](O)CC6)c6nc(NCCC(F)(F)F)ncc56)cc4)CC3)cc21 [I-64, 3-(3-methyl-2-oxo-5-[3-[2-(2-[4-[(4-[1-[trans-4-hydroxycyclohexyl]-6-[(3,3,3-trifluoropropyl)amino]-1H-pyrazolo[3,4-d]pyrimidin-3-yl]phenyl)methyl]piperazin-1-yl]ethoxy)ethoxy]propyl]-2,3-dihydro-1H-1,3-benzodiazol-1-y1)piperidine-2,6-dione]
Dmax (Jurkat, 4 h): > 50%

C[C@@H](CC(F)(F)F)Nc1ncc2c(-c3ccc(CN4CCN(CCCOC5CN(Cc6ccc7c(c6)n(C)c(=O)n7C6CCC(=O)NC6=O)C5)CC4)cc3)cn([C@H]3CC[C@H](O)CC3)c2n1 (stereo partly drawn) [I-201, 3-(3-methyl-2-oxo-5-[[3-(3-[4-[(4-[7-[trans-4-hydroxycyclohexy1]-2-[[(2S)-4,4,4-trifluorobutan-2-yl]amino]pyrrolo[2,3-d]pyrimidin-5-y1]phenyl)methyl]piperazin-1-yl]propoxy)azetidin-1-yl]methy1]-1,3-benzodiazol-1-yl)piperidine-2,6-dione; tris(formic acid)]
Dmax (Jurkat, 4 h): 20 to 50%

C[C@@H](c1ccc(-c2cn([C@H]3CC[C@H](O)CC3)c3nc(NCCC(F)(F)F)ncc23)cc1)N1CCN(CCCOCCCc2ccc3c(c2)n(C)c(=O)n3C2CCC(=O)NC2=O)CC1 (stereo partly drawn) [I-102, 3-[3-methyl-2-oxo-5-[3-(3-[4-[(1S)-1-(4-[7-[trans-4-hydroxycyclohexy1]-2-[(3,3,3-trifluoropropyl)amino]-7H-pyrrolo[2,3-d]pyrimidin-5-yl]phenyl)ethyl]piperazin-1-yl]propoxy)propyl]-2,3-dihydro-1H-1,3-benzodiazol-1-yl]piperidine-2,6-dione; formic acid]
Dmax (Jurkat, 4 h): > 50%

CCC[C@H](C)Nc1ncc2c(n1)n([C@H]1CC[C@H](O)CC1)cc2[C@H]1CC[C@@H](CN2CCN(CCCO[C@H]3CCN(Cc4ccc5c(c4)n(C)c(=O)n5C4CCC(=O)NC4=O)C3)CC2)CC1 (stereo partly drawn) [I-220, 3-(3-methyl-2-oxo-5-[[(3S)-3-[3-(4-[[4-[2-[(2S)-pentan-2-ylamino]-7-[trans-4-hydroxycyclohexyl]pyrrolo[2,3-d]pyrimidin-5-yl]cyclohexyl]methyl]piperazin-1-y1)propoxy]pyrrolidin-1-yl]methyl]-1,3-benzodiazol-1-y1)piperidine-2,6-dione]
Dmax (Jurkat, 4 h): > 50%

Cc1ncsc1-c1ccc(CNC(=O)[C@@H]2C[C@@H](O)CN2C(=O)[C@@H](NC(=O)COCCOCCOCCOCCn2ccc3c(Nc4nc(N[C@@H]5CCCC[C@@H]5N)cc5nc[nH]c(=O)c45)cccc32)C(C)(C)C)cc1 [I-230]
Dmax (Jurkat, 4 h): < 20%

CN1CCN(Cc2ccc(-c3ccc(CO[C@H]4CCC[C@@H]4NC(=O)c4cc(-c5cnn(CCOCCOCCCc6cccc7c6n(C)c(=O)n7C6CCC(=O)NC6=O)c5)cnc4N)cc3)cc2)CC1 (stereo partly drawn) [I-184, 2-Amino-5-[1-[2-(2-[3-[1-(2,6-dioxopiperidin-3-yl)-3-methyl-2-oxo-1,3-benzodiazol-4-yl]propoxy]ethoxy)ethyl]pyrazol-4-yl]-N-[(1S,2S)-2-([4-[(4-methylpiperazin-1-yl)methyl]-[1,1-biphenyl]-4-yl]methoxy)cyclopentyl]pyridine-3-carboxamide]
Dmax (Jurkat, 4 h): 20 to 50%

Cn1c(=O)n(C2CCC(=O)NC2=O)c2ccc(CCN3CCC(OCCN4CCN(Cc5ccc(-c6cn([C@H]7CC[C@H](O)CC7)c7nc(NCCC(F)(F)F)ncc67)cc5)CC4)C3)cc21 (stereo partly drawn) [I-124, 3-(3-methyl-2-oxo-5-[2-[3-(2-[4-[(4-[7-[trans-4-hydroxycyclohexyl]-2-[(3,3,3-trifluoropropyl)amino]-7H-pyrrolo[2,3-d]pyrimidin-5-yl]phenyl)methyl]piperazin-1-yl]ethoxy)pyrrolidin-1-yl]ethyl]-2,3-dihydro-1H-1,3-benzodiazol-1-y1)piperidine-2,6-dione; tris(formic acid)]
Dmax (Jurkat, 4 h): > 50%

CN1CCN(Cc2ccc(-c3ccc(CO[C@H]4CCC[C@@H]4NC(=O)c4cc(-c5cnn(CCCCC(=O)NCCCOCCCc6ccc7c(c6)n(C)c(=O)n7C6CCC(=O)NC6=O)c5)cnc4N)cc3)cc2)CC1 (some centres unmarked) [I-39, formic acid]
Dmax: > 50%

Cn1c(=O)n([C@H]2CCC(=O)NC2=O)c2ccc(CCOCCN3CCC(N4CCN(Cc5ccc(-c6cn([C@H]7CC[C@H](O)CC7)c7nc(NCCC(F)(F)F)ncc67)cc5)CC4)CC3)cc21 [I-130, 3-(3-methyl-2-oxo-5-[2-[2-(4-[4-[(4-[7-[trans-4-hydroxycyclohexyl]-2-[(3,3,3-trifluoropropyl)amino]-7H-pyrrolo[2,3-d]pyrimidin-5-yl]phenyl)methyl]piperazin-1-yl]piperidin-1-y1)ethoxy]ethyl]-2,3-dihydro-1H-1,3-benzodiazol-1-y1)piperidine-2,6-dione]
Dmax (Jurkat, 4 h): > 50%

CCC[C@H](C)Nc1ncc2c(-c3ccc(CN4CCN(CCCO[C@H]5CCN(Cc6ccc7c(c6)n(C)c(=O)n7C6CCC(=O)NC6=O)C5)CC4)cc3)cn([C@H]3CC[C@H](O)CC3)c2n1 (stereo partly drawn) [I-177, 3-(3-methyl-2-oxo-5-[[(3S)-3-(3-[4-[(4-[2-[(2S)-pentan-2-ylamino]-7-[trans-4-hydroxycyclohexyl]pyrrolo[2,3-d]pyrimidin-5-yl]phenyl)methyl]piperazin-1-yl]propoxy)pyrrolidin-1-yl]methyl]-1,3-benzodiazol-1-yl)piperidine-2,6-dione]
Dmax (Jurkat, 4 h): > 50%

C[C@@H](CC(F)(F)F)Nc1ncc2c(-c3ccc(CN4CCN(CCCOCCCc5ccc6c(c5)n(C)c(=O)n6C5CCC(=O)NC5=O)CC4)cc3)cn([C@H]3CC[C@H](O)CC3)c2n1 (stereo partly drawn) [I-110, 3-[3-methyl-2-oxo-5-[3-(3-[4-[(4-[7-[(1r,4r)-4-hydroxycyclohexyl]-2-[[(2S)-4,4,4-trifluorobutan-2-yl]amino]-7H-pyrrolo[2,3-d]pyrimidin-5-yl]phenyl)methyl]piperazin-1-yl]propoxy)propyl]-2,3-dihydro-1H-1,3-benzodiazol-1-y1]piperidine-2,6-dione]
Dmax (Jurkat, 4 h): > 50%

CCC[C@H](C)Nc1ncc2c(n1)n([C@H]1CC[C@H](O)CC1)cc2[C@H]1CC[C@@H](CN2CCN(CCCOC3CN(Cc4ccc5c(c4)n(C)c(=O)n5C4CCC(=O)NC4=O)C3)CC2)CC1 (some centres unmarked) [I-222]
Dmax (Jurkat, 4 h): > 50%

Cn1c(=O)n([C@H]2CCC(=O)NC2=O)c2ccc(CCCOCCOCCN3CCN(Cc4ccc(-c5cn([C@H]6CC[C@H](O)CC6)c6nc(NCCC(F)(F)F)ncc56)cc4)CC3)cc21 [I-56, 3-(3-methyl-2-oxo-5-[3-[2-(2-[4-[(4-[7-[trans-4-hydroxycyclohexy1]-2-[(3,3,3-trifluoropropyl)amino]-7H-pyrrolo[2,3-d]pyrimidin-5-yl]phenyl)methyl]piperazin-1-yl]ethoxy)ethoxy]propyl]-2,3-dihydro-1H-1,3-benzodiazol-1-yl)piperidine-2,6-dione]
Dmax (Jurkat, 4 h): > 50%

Cn1c(=O)n(C2CCC(=O)NC2=O)c2ccc(CCCN3CCC(N4CCN(Cc5ccc(-c6cn([C@H]7CC[C@H](O)CC7)c7nc(NCCC(F)(F)F)ncc67)cc5)CC4)C3)cc21 (stereo partly drawn) [I-122, 3-[3-methyl-2-oxo-5-[3-(3-[4-[(4-[7-[trans-4-hydroxycyclohexy1]-2-[(3,3,3-trifluoropropyl)amino]-7H-pyrrolo[2,3-d]pyrimidin-5-yl]phenyl)methyl]piperazin-1-y1]pyrrolidin-1-y1)propyl]-2,3-dihydro-1H-1,3-benzodiazol-1-yl]piperidine-2,6-dione; formic acid]
Dmax (Jurkat, 4 h): > 50%

Reference: US20260042762A1 (Kymera Therapeutics, Inc., priority 2018, published 2026)
